In patent US20130224115A1, “NON-RADIOACTIVE AGENTS FOR NEUROBLASTOMA IMAGING” (Baylor College of Medicine, priority 2010, published 2013):
Several values for one entry are separate records, joined by “and”; a condition that tells them apart may be missing. Identical values can stand only once. Entries after “also recorded” stand apart in the source; their conditions may differ.

Experiments:
[1] = tested on: human neuroblastoma xenograft; test: Whole body and dissected organ imaging in the neuroblastoma xenograft mouse model (late stage tumor, imaging window); format: in vivo, mice
Procedure: (§1) Tumor xenografts: Four- to six-week-old female nude mice (18-22 g) (Taconic, Hudson, N.Y.) were housed and fed with sterilized pellet chow and sterilized water. Animals were maintained in a pathogen-free mouse colony. Tumor cells near confluence were harvested by incubation with 0.05% trypsin-EDTA. Cells were pelleted by centrifugation at 130×g for 5 min and resuspended in sterile phosphate-buffered saline (PBS). Approximately 1 million cells were implanted subcutaneously into the hind leg region of the mice. A total of 15 mice was used in this study.
(§2) Animal imaging. Tumors were visualized by intraperitoneal injection of 3 mg of VivoGlo Luciferin (Promega, Madison Wis.) before the imaging session, and pseudo into cyan. Ten nanomoles of W765-BG and 3 nanomoles of the vascular agent RGD-Cy5.5 were injected i.v. into the tumor-bearing mice prior to the imaging study. The animals were imaged 1 to 9 days after the injection using the Kodak In-Vivo Multispectral System FX (Carestream Health Molecular Imaging, New Haven, Conn.). Vasculature images were recorded at wavelengths of ex/em 650/700 nm for RDG-Cy5.5 and pseudo colored into red. The W765-BG signal was recorded at wavelengths of ex/em 770/830 nm and pseudo colored into green. Tumor cells, vasculature, and W765-BG signals were precisely overlaid with anatomical X-ray images.
Late stage tumor, organ image and pathological analysis. Late stage tumor mass and organ imaging were performed after the injection of additional imaging agent (FIG. 5A-H). […] Gross necropsy confirmed the necrosis in the center of this tumor. H&E stain confirmed the identification of tumor (FIG. 5I), muscle (FIG. 5J), liver (FIG. 5K), kidney (FIG. 5L), and spleen (FIG. 5M) at pathological levels.

[2] = tested on: human neuroblastoma cells (NPG.Luc cells); test: NIR confocal microscopy of imaging agent uptake by neuroblastoma cells; format: cell-based; settings: 50 μmolar, incubated overnight at 37° C., ex/em 765/810 nm
Procedure: Cell lines. Human neuroblastoma cancer cell lines NB1691.1uc and SYFY.luc were cultured in Dulbecco's Modified Eagle's Medium supplemented with high glucose and F12 nutrient (DMEM/F12, Invitrogen, Carlsbad, Calif.) with 10% fetal bovine serum (Hyclone, Logan, Utah) in a humidified incubator maintained at 37° C. with 5% CO2.
Confocal microscope imaging. Cells were harvested from culture and incubated overnight at 37° C. with W765-BG imaging agent or NIR dye at final concentrations of 50 μmolar. Cells were washed in PBS, then incubated for 15 min at 4° C. with Sytox green (Molecular Probes) in 95% ethanol to fix the cells and stain cell nuclei. Stained cells were then transferred to a slide and mounted for microscopic examination. Images were recorded using an Olympus confocal microscope (Model: Fluorview 1000, Olympus America, Center Valley, Pa., USA). The microscope was equipped with excitation (Ex) light source and emission (Em) filters to detect and separate W765-BG or NIR dye (ex/em 765/810 nm) and cell nuclei (ex/em 488/510 nm) signals. In the microscopic images, signal intensities were recorded from one slice of 23 cell z-stacks with 0.5 micrometers gaps. Sytox green and W765-BG or NIR dye signals were pseudo colored into green (emission at 510 nm) and red (emission at 810 nm), respectively.
Imaging of W765-BG in neuroblastoma cells. To evaluate W765-BG as a potential specific molecule, its ability to uptakes by neuroblastoma cells was examined in vitro by NIR confocal microscopy. NPG.Luc cells were treated with W765-BG or free dye overnight at 37° C., after which they were washed, fixed, and visualized by confocal microscopy.
In vitro cell uptake imaging agent. Imaging agent uptake by the cells was recorded by confocal microscopy. The images show cell morphology (FIG. 3A), cell nuclei (FIG. 3B), and W765-BG uptakes by cells (FIG. 3C). […] Those results were validated by non-overlaid NIR images (FIG. 3G and FIG. 3H).

NGP.Luc xenograft = test: In vivo NIR optical imaging of NGP.Luc tumor xenografts in mice
Procedure: as §1, §2
Imaging of W765-BG in human tumor xenografts in mice. […] Tumor-bearing mice received an intraperitoneal injection of Luciferin to visualize the tumor cells, followed by an intravenous injection of W765-BG from the tail vein. Whole body images were collected at 24 h intervals over the course of eight days. Tumors were visualized by white light, X-ray and luciferase imaging (FIG. 2). […] When merging the optical signal of W765-BG with luciferase and anatomic X-ray images (FIG. 2E-2F), their precise overlay confirms the specificity of W765-BG.
In contrast, the NGP.Luc tumor was rather diffuse without a clear margin in the early tumor growth phase (FIG. 4G). The tumor vasculature developed better than in the NB1691.Luc tumor. […] The diffused tumor growth pattern also limited the W765-BG imaging findings in this stage (FIG. 4I). Once again, the merged images show the location of the tumor cells and the vasculature status (FIG. 4J to FIG. 4L). One week later, the tumor cells became more concentrated in one location (FIG. 4M). The vasculature surrounding the tumor node was well formed (FIG. 4N) and the TBR of the vasculature agent increased to 1.90. […] The two imaging agents were distributed differently in the body (FIG. 4P). […] Merged X-ray and W765-BG images confirmed the tumor size, location and W765-BG signal intensity (FIG. 4Q).

NB1691.Luc xenograft = test: In vivo NIR optical imaging of NB1691.Luc tumor xenografts in mice; settings: 7 days post inoculation, 10 nmol W765-BG, 3 nmol RGD-Cy5.5 i.v.
Procedure: as §1
as §2, with “The animals were imaged 1 to 9 days after the injection using the Kodak In-Vivo Multispectral System FX (Carestream Health Molecular Imaging, New Haven, Conn.).” left out, “Tumor cells, vasculature, and W765-BG signals were precisely overlaid with anatomical X-ray images.” left out
In vivo imaging. Luciferase positive tumor cell could be detected as early as 4 days after inoculation (data not show). Different tumor growth patterns were detected at 7 days post inoculation. […]

neuroblastomas = settings: Maris et al., 2007; cited from earlier work

Row | distribution of agent in dissected organs ([1]; late stage tumor, dissected organ images (FIG. 5F, 5G)) | imaging window post injection ([1]; post injection) | uptake by normal renal structures ([1]; retroperitoneal area, whole body images) | persistence of tumor specific optical signals once absorbed ([1]; xenograft mouse model) | whole body location of NIR signal (NGP.Luc xenograft; 48 hours after administration (FIG. 2)) | whole body distribution of agent signal (NGP.Luc xenograft; NGP.Luc, one week later than the early stage images (FIG. 4P)) | time optical signals were retained in the tumor after injection (NGP.Luc xenograft; after which signal strength gradually diminished) | Compound | whole body distribution of agent signal, late stage tumor ([1]; late stage tumor, after injection of additional imaging agent (FIG. 5B, 5C)) | uptake of agent by neuroblastoma cells (NIR signal in cells, confocal microscopy) [2] | tumor to background ratio (NGP.Luc xenograft; 24 hours after injection) | tumor to background ratio (NGP.Luc xenograft; 48 hours after injection) | tumor to background ratio (NGP.Luc xenograft; 192 hours after injection) | tumor-to-background ratio (TBR) (NGP.Luc xenograft; NGP.Luc, early tumor growth phase (7 days post inoculation), 10 nmol W765-BG, 3 nmol RGD-Cy5.5 i.v.) | tumor-to-background ratio (TBR) (NGP.Luc xenograft; NGP.Luc, one week later than the early stage images) | tumor-to-background ratio (TBR) (NB1691.Luc xenograft) | proportion of neuroblastomas in which the agent can be selectively concentrated (neuroblastomas) | uptake of agent by neuroblastoma cells (NIR signal in cells, confocal microscopy) ([2]; listed as NIR dye)
1 | in the tumor, liver and spleen | 8 to 9 days | did not take up | longer than one week | detected in tumor region only | mainly in the tumor region | about 48 hours | CC1(C)C(/C=C/C2=C(Oc3ccc(S(=O)(=O)O)cc3)C(=C/C=C3/N(CCCCCC(=O)NCC(=O)Nc4cccc(CNC(=N)N)c4)c4ccc(S(=O)(=O)O)cc4C3(C)C)/CCC2)=[N+](CCCCS(=O)(=O)O)c2ccc(S(=O)(=O)O)cc21 [Compound W765-BG, 2-(3-(IRdye800-Gly-amino)-benzyl)guanidine] | non-uniformly distributed in the tumor; also recorded: located only in the tumor region | detected inside the cells; also recorded: internalized into cells; also recorded: take up the W765-BG agent; also recorded: high uptake | 1.95 | 1.98 | 1.52 | 1.08 | 2.90 and 2.8 | 0.95 |  | 
2 |  |  |  |  |  |  |  | N=C(N)NCc1cccc([131I])c1 [MIBG, meta-iodobenzylguanidine] |  |  |  |  |  |  |  |  | more than 90% | 
3 |  |  |  |  |  |  |  | CC1(C)C(/C=C/C2=C(Oc3ccc(S(=O)(=O)O)cc3)C(=C/C=C3/N(CCCCS(=O)(=O)O)c4ccc(S(=O)(=O)[O-])cc4C3(C)C)/CCC2)=[N+](CCCCCC(=O)O)c2ccc(S(=O)(=O)O)cc21 [free dye, IRDye800CW carboxylate, reference compound] |  | almost no detectable signal |  |  |  |  |  |  |  | almost no detectable signal
